Measured values from ChEMBL document CHEMBL1154979 (J Med Chem, 2010).
Activity calls are given as the source filed them.

Experiments:
Format in all cases: cell-based
Details in all cases: tested as the 125I-labelled form
[1] = system: T1, Type-1 angiotensin II receptor (Homo sapiens), P30556 [N111G]; assay: Binding affinity to human AT1 receptor N111G constitutively active mutant expressed in CHO cells by photoaffinity labeling relative to untreated control
T1 sequence (whole entry): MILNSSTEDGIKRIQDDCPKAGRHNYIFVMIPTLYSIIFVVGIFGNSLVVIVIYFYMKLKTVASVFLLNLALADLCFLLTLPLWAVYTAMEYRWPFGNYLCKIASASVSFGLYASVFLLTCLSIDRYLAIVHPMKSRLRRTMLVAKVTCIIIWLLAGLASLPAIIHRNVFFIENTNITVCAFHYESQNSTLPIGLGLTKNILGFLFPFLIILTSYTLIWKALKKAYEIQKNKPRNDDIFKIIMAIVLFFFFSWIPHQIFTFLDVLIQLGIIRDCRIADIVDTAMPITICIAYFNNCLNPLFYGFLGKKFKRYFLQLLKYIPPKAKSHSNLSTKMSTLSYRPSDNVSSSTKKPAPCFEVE

[2] = system: T1, Type-1 angiotensin II receptor (Homo sapiens), P30556 [N111G]; assay: Binding affinity to Leu143-Met243 region of human AT1 receptor N111G constitutively active mutant expressed in CHO cells after PNGase-F cleavage by photoaffinity labeling
[3] = system: T1, Type-1 angiotensin II receptor (Homo sapiens), P30556 [N111G]; assay: Binding affinity to Glu91-Met134 and Ala244-Met284 regions of human AT1 receptor N111G constitutively active mutant expressed in CHO cells after CNBr cleavage by photoaffinity labeling
[4] = system: T1, Type-1 angiotensin II receptor (Homo sapiens), P30556 [N111G]; assay: Binding affinity to Ile2-Met30 region of human AT1 receptor N111G constitutively active mutant expressed in CHO cells after PNGase-F cleavage by photoaffinity labeling
[5] = system: T1, Type-1 angiotensin II receptor (Homo sapiens), P30556 [N111G]; assay: Binding affinity to Thr61-Lys102 and Ala21-Lys58 regions of human AT1 receptor N111G constitutively active mutant expressed in CHO cells after Endo-Lys-C cleavage by photoaffinity labeling

Measured: Activity

CC[C@H](C)[C@H](NC(=O)[C@H](Cc1ccc(I)cc1)NC(=O)[C@@H](NC(=O)[C@H](Cc1ccc(C(=O)c2ccccc2)cc1)NC(=O)CNC)C(C)C)C(=O)N[C@@H](Cc1cnc[nH]1)C(=O)N1CCC[C@H]1C(=O)N[C@@H](Cc1ccccc1)C(=O)O
active: [1] | [2] | [3]

CNCC(=O)N[C@@H](CCCNC(=N)N)C(=O)N[C@H](C(=O)N[C@@H](Cc1ccc(I)cc1)C(=O)N[C@@H](Cc1ccc(C2(C(F)(F)F)N=N2)cc1)C(=O)N[C@@H](Cc1cnc[nH]1)C(=O)N1CCC[C@H]1C(=O)N[C@@H](Cc1ccccc1)C(=O)O)C(C)C
not listed: [2]
active: all other assays above

CC[C@H](C)[C@H](NC(=O)[C@H](Cc1ccc(I)cc1)NC(=O)[C@H](Cc1ccc(C(=O)c2ccccc2)cc1)NC(=O)[C@H](CCCNC(=N)N)NC(=O)CNC)C(=O)N[C@@H](Cc1cnc[nH]1)C(=O)N1CCC[C@H]1C(=O)N[C@@H](Cc1ccccc1)C(=O)O
active: [1] | [2]

CNCC(=O)N[C@@H](CCCNC(=N)N)C(=O)N[C@H](C(=O)N[C@@H](Cc1ccc(I)cc1)C(=O)N[C@@H](Cc1ccc(C(=O)c2ccccc2)cc1)C(=O)N[C@@H](Cc1cnc[nH]1)C(=O)N1CCC[C@H]1C(=O)N[C@@H](Cc1ccccc1)C(=O)O)C(C)C
not listed: [2]
active: all other assays above

CC[C@H](C)[C@H](NC(=O)[C@H](Cc1ccc(I)cc1)NC(=O)[C@@H](NC(=O)[C@H](CCCNC(=N)N)NC(=O)[C@@H](N)Cc1ccc(C(=O)c2ccccc2)cc1)C(C)C)C(=O)N[C@@H](Cc1cnc[nH]1)C(=O)N1CCC[C@H]1C(=O)N[C@@H](Cc1ccccc1)C(=O)O
not listed: [5]
active: all other assays above

CC[C@H](C)[C@H](NC(=O)[C@H](Cc1ccc(I)cc1)NC(=O)[C@H](Cc1ccc(C2(C(F)(F)F)N=N2)cc1)NC(=O)[C@H](CCCNC(=N)N)NC(=O)CNC)C(=O)N[C@@H](Cc1cnc[nH]1)C(=O)N1CCC[C@H]1C(=O)N[C@@H](Cc1ccccc1)C(=O)O
active: [1] | [2]
